Data taken from patent US20080194482A1, “Selective Apac2 Receptor Peptide Agonists” (priority 2005, published 2008).
Square brackets hold non-standard residues; d marks the D form. Peptide text beside a SMILES is read from it. * marks the point of attachment. Orn = NCCC[C@H](N)C(=O)O; Hexanoyl = CCCCCC(=O)*; Aib = CC(C)(N)C(=O)O

T1: human VPAC2 (Homo sapiens, UniProt P41587)
T1 construct: expressed in transfected cells
T1 sequence (P41587 24-438): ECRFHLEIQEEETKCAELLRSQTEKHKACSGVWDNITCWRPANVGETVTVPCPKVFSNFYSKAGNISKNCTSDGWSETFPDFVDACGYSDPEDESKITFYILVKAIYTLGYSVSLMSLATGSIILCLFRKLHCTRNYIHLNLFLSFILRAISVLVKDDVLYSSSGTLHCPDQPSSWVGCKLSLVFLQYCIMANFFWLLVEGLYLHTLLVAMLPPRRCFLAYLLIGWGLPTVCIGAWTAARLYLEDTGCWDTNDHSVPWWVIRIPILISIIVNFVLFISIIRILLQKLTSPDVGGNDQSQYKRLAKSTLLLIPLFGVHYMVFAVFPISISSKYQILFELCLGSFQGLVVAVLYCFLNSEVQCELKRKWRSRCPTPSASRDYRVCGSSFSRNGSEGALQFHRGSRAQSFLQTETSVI

T2: rat VPAC1 receptor (Rattus norvegicus, UniProt P30083)
T2 construct: expressed in transfected cells; host or cells: CHO-PO (transient, Lipofectamine)
T2 sequence (P30083 31-459): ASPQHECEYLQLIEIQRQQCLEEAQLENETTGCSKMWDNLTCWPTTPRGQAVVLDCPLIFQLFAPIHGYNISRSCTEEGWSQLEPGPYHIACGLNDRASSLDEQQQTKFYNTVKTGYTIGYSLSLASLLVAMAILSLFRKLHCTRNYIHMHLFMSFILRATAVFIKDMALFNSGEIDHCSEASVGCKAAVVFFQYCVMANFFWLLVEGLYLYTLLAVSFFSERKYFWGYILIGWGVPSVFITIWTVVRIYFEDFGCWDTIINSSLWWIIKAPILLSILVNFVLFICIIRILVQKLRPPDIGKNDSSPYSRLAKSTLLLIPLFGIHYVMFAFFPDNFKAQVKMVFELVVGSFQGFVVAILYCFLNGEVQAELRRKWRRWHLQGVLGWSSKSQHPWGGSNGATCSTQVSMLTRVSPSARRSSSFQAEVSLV

T3: human VPAC1 (Homo sapiens, UniProt P32241)
T3 construct: expressed in transfected cells
T3 sequence (P32241 31-457): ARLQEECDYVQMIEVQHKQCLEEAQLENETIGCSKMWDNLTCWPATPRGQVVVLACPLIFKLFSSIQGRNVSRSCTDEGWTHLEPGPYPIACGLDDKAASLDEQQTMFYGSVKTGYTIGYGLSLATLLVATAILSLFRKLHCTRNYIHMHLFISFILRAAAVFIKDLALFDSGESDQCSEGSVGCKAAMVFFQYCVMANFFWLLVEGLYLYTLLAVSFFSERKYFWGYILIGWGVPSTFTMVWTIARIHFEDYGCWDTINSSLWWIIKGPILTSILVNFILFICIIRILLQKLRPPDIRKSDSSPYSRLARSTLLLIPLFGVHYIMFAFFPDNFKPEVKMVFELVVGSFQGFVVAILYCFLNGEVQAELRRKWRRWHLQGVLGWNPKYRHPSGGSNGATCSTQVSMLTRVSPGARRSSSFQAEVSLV

T4: rat VPAC2 receptor (Rattus norvegicus, UniProt P35000)
T4 construct: expressed in transfected cells; host or cells: CHO-PO (transient, Lipofectamine)
T4 sequence (P35000 23-437): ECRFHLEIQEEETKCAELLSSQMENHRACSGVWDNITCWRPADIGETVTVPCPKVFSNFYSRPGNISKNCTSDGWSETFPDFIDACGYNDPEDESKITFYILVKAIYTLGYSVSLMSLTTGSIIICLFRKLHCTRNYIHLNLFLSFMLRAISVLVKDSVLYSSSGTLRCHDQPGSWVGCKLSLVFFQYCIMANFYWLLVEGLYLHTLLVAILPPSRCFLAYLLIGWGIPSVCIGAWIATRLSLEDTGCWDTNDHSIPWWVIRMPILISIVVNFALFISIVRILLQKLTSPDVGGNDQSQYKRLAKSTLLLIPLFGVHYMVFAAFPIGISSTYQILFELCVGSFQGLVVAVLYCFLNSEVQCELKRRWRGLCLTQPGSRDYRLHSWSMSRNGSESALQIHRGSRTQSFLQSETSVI

T5: human VPAC1 receptor (human, UniProt P32241 31-457)
T5 sequence (looked up): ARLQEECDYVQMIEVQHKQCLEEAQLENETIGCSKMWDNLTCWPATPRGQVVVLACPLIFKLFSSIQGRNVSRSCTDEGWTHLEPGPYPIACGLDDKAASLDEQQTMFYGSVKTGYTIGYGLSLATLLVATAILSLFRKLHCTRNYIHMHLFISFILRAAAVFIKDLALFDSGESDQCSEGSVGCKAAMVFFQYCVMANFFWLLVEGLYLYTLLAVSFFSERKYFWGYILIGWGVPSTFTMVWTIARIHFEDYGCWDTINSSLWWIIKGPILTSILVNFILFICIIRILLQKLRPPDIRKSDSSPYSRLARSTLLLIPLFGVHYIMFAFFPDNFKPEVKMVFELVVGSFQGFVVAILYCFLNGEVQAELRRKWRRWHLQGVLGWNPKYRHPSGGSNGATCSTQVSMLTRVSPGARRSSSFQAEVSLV

T6: human VPAC2 receptor (human, UniProt P41587 24-438)
T6 sequence (looked up): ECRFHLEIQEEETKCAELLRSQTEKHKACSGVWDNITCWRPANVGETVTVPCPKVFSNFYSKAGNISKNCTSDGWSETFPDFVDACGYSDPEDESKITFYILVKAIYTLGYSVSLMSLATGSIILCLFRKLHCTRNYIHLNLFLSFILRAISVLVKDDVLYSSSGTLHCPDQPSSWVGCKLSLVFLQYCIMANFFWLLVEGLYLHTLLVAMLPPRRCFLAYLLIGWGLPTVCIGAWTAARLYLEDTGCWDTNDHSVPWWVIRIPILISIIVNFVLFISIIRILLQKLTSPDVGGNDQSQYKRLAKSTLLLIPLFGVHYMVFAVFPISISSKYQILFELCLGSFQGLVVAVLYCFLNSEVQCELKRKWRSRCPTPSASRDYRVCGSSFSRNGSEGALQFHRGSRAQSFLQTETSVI


Experiments:
human VPAC2 [1] = molecular target: T1, human VPAC2; assay: Filter binding assay, 125I-labeled VIP tracer, VPAC2 membranes; details: read-out: Human VPAC2 Receptor Binding (IC50; nM)
Protocol: For this assay, the solutions and equipment include:
Presoak solution: 0.5% Polyethyleneamine in Aqua dest
Buffer for flushing filter plates: 25 mM HEPES pH 7.4
Blocking buffer: 25 mM HEPES pH 7.4; 0.2% protease free BSA
Assay buffer: 25 mM HEPES pH 7.4; 0.5% protease free BSA
Dilution and assay plate: PS-Microplate, U form
Filtration Plate: Multiscreen FB Opaque Plate; 1.0 μM Type B Glasfiber filter
In order to prepare the filter plates, the presoak solution is aspirated by vacuum filtration. The plates are flushed twice with 200 μL flush buffer. 200 μL blocking buffer is added to the filter plate. The filter plate is then incubated with 200 μL presoak solution for 1 hour at room temperature.
The assay plate is filled with 25 μL assay buffer, 25 μL membranes (2.5 μg) suspended in assay buffer, 25 μL compound (agonist) in assay buffer, and 25 μL tracer (about 40000 cpm) in assay buffer. The filled plate is incubated for 1 hour with shaking.
The transfer from assay plate to filter plate is conducted. The blocking buffer is aspirated by vacuum filtration and washed two times with flush buffer. 90 μL is transferred from the assay plate to the filter plate. The 90 μL transferred from assay plate is aspirated and washed three times with 200 μL flush buffer. The plastic support is removed. It is dried for 1 hour at 60° C. 30 μL Microscint is added. The count is performed.

rat VPAC1 receptor = molecular target: T2, rat VPAC1 receptor; assay: DiscoveRx cAMP assay, in vitro potency at rat VPAC1 receptor; assay type: cell-based; details: CHO-PO cells transiently transfected with rat VPAC1; cAMP generation; mean of two independent runs
Protocol: DiscoveRx: CHO-PO cells are transiently transfected with rat VPAC1 or VPAC2 receptor DNA using commercially available transfection reagents (Lipofectamine from Invitrogen). The cells are seeded at a density of 10,000/well in a 96-well plate and are allowed to grow for 3 days in […] culture medium. At day 3, the assay is performed.
On the day of the experiment, the medium is removed. Also, the cells are washed twice. The cells are incubated in assay buffer plus IBMX for 15 minutes at room temperature. Afterwards, the stimuli are added and are dissolved in assay buffer. The stimuli are present for 30 minutes. Then, the assay buffer is gently removed. The cell lysis reagent of the DiscoveRx cAMP kit is added. Thereafter, the standard protocol for developing the cAMP signal as described by the manufacturer is used (DiscoveRx Inc., USA). EC50 values for cAMP generation are calculated from the raw signal or are based on absolute cAMP levels as determined by a standard curve performed on each plate.
Results for each agonist are the mean of two independent runs. Rat VPAC1 and VPAC2 results are only generated using the DiscoveRx assay.

human VPAC1 = molecular target: T3, human VPAC1; assay: Filter binding assay, 125I-labeled VIP tracer, VPAC1 membranes; details: read-out: Human VPAC1 Receptor Binding (IC50; nM)
[2] = Rat serum stability (activity remaining, CHO-VPAC2 DiscoveRx read-out); assay type: in vitro ADME
Summary of the method: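 Peptides preincubated overnight in rat serum at 37 °C without aprotinin versus 4 °C with aprotinin, then tested as 11-point 5× dilutions in duplicate on CHO-VPAC2 cells, 30 min at RT. cAMP measured by DiscoveRx kit against standards; EC50 derived for each aliquot.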

rat VPAC2 receptor = molecular target: T4, rat VPAC2 receptor; assay: DiscoveRx cAMP assay, in vitro potency at rat VPAC2 receptor; assay type: cell-based; details: CHO-PO cells transiently transfected with rat VPAC2; cAMP generation; mean of two independent runs
human VPAC2 [3] = molecular target: T1, human VPAC2; assay: Alpha screen cAMP assay, in vitro potency at human VPAC2 receptor; assay type: cell-based; details: cAMP generation; single result from two analyses in a single run, some values average of more than one experiment
Protocol: Alpha screen: Cells are washed in the culture flask once with PBS. Then, the cells are rinsed with enzyme free dissociation buffer. The dissociated cells are removed. The cells are then spun down and washed in stimulation buffer. For each data point, 50,000 cells suspended in stimulation buffer are used. To this buffer, Alpha screen acceptor beads are added along with the stimuli. This mixture is incubated for 60 minutes. Lysis buffer and Alpha screen donor beads are added and are incubated for 60 to 120 minutes. The Alpha screen signal (indicative of intracellular cAMP levels) is read in a suitable instrument (e.g. AlphaQuest from Perkin-Elmer). Steps including Alpha screen donor and acceptor beads are performed in reduced light. The EC50 for cAMP generation is calculated from the raw signal or is based on absolute cAMP levels as determined by a standard curve performed on each plate.
Results for each agonist are, at minimum, from two analyses performed in a single run. For some agonists, the results are the mean of more than one run. The tested peptide concentrations are: 10000, 1000, 100, 10, 3, 1, 0.1, 0.01, 0.003, 0.001, 0.0001 and 0.00001 nM.

human VPAC1 receptor = molecular target: T5, human VPAC1 receptor; assay: cell-based or functional assay
human VPAC2 receptor = molecular target: T6, human VPAC2 receptor; assay: cell-based or functional assay

Row | Molecule | IC50 (human VPAC2 [1]) | EC50 (rat VPAC1 receptor) | IC50 (human VPAC1) | Rat Serum Stability (estimated purity in % after overnight incub.) [2] | EC50 (rat VPAC2 receptor) | EC50 (human VPAC2 [3]) | Human VPAC1 Receptor: DiscoveRx (EC50; nM), cAMP generation (human VPAC1 receptor) | Human VPAC2 Receptor: DiscoveRx (EC50; nM), cAMP generation (human VPAC2 receptor)
1 | CCCCCC(=O)N[C@@H](Cc1c[nH]cn1)C(=O)N[C@@H](CO)C(=O)N[C@@H](CC(=O)O)C(=O)N[C@@H](C)C(=O)N[C@H](C(=O)N[C@@H](Cc1ccccc1)C(=O)N[C@H](C(=O)N[C@@H](CCC(=O)O)C(=O)N[C@@H](CCC(N)=O)C(=O)N[C@@H](Cc1ccc(OC)cc1)C(=O)N[C@H](C(=O)N[C@@H](CCCN)C(=O)N[C@@H](CC(C)C)C(=O)N[C@@H](CCCNC(=N)N)C(=O)NC(C)(C)C(=O)N[C@@H](CCC(N)=O)C(=O)N[C@H](C(=O)N[C@@H](C)C(=O)N[C@@H](C)C(=O)NC(C)(C)C(=O)N[C@@H](CCCN)C(=O)N[C@@H](Cc1ccc(O)cc1)C(=O)N[C@@H](CC(C)C)C(=O)N[C@@H](CCC(N)=O)C(=O)N[C@@H](CO)C(=O)N[C@H](C(=O)N[C@@H](CCCN)C(=O)N[C@@H](CCCN)C(=O)NCC(=O)NCC(=O)N1CCC[C@H]1C(=O)N[C@@H](CO)C(=O)N[C@@H](CO)C(=O)NCC(=O)N[C@@H](C)C(=O)N1CCC[C@H]1C(=O)N1CCC[C@H]1C(=O)N1CCC[C@H]1C(=O)N[C@@H](CO)C(N)=O)[C@@H](C)CC)C(C)C)[C@@H](C)O)[C@@H](C)O)C(C)C [Agonist P488] (Hexanoyl-HSDAVFTEQY(Me)T[Orn]LR[Aib]QVAA[Aib][Orn]YLQSI[Orn][Orn]GGPSSGAPPPS-NH2) | 0.64 nM | 1.66 nM | > 1000 nM | 193.17% | 0.09 nM | 0.19 nM | – | –
2 | HSDAVFTDNYTRLRKQVAAKKYLQSIKNKRQGGPSSGAPPPS [VPAC2 receptor peptide agonist P29] | – | – | – | – | – | – | 18.3 nM | 3.02 nM
